Reference: US9434976B2, “Modification of sample preparation to differentiate live and dead bacteria by polymerase chain reaction assay” (priority 2013, dated 2016)
Entries after “also recorded” stand apart in the source; their conditions may differ. Read-outs that look alike come from different tables or passages of the source.

Assays:
[1] = test system: Escherichia coli 0157:H7; experiment: Real time PCR of live, heat-killed or isopropyl alcohol-killed E. coli after treatment with a DNA-binding chemical; format: cell-based; details: for Blocking of amplification of DNA from dead bacteria: dead E. coli; for Penetration into E. coli and blocking of PCR amplification: recommended concentration; for PCR amplification product from live versus killed E. coli: Gel Red 3x stock
Experimental: (§1) Various amounts of Gel Red™ can be added to the isolated microbe. Originally the GelRed™ is available at 10,000× solution in water or 3× staining solution in H2O (working solution). The base for the concentration calculation refers to working solution or 3×. In FIGS. 2-4 various dilutions were reported (1:1, 1:10 and 1:100). “1:1” means where 1.0 μl of commercially available Gel Red™ at 3× is diluted in 1.0 μl diluent (such as water). “1:10” means where 1.0 μl of commercially available Gel Red™ at 3× is diluted in 10.0 μl diluent (such as water). “1:100” means where 1.0 μl of commercially available Gel Red™ at 3× is diluted in 100.0 μl diluent (such as water).
(§2) Bacterial species included in these experiments were E. coli, L. monocytogens, and S. Typhimurium. Fresh culture was suspended in a buffer and placed in three tubes (live bacteria, heat-killed and isopropanol-killed bacteria). The first tube contained live bacteria without treatment, and the second and the third tube were inactivated by heat and isopropanol, respectively. The DNA-intercalating chemicals used in this experiment were PMA, EMA and other DNA-binding chemicals, which were not previously reported. The experiments were performed to study the application of sample modification with DNA-binding chemicals to enable PCR to amplify samples only from viable bacteria. […] The bacterial sample was modified with PMA or combined with high voltage light exposure to assess the combined treatment effect.
A sample containing E. coli was tested. One sample included live E. coli. Another sample included heat killed E. coli and another sample contained isopropyl alcohol killed E. coli. In FIG. 2, Compound CE stands for Gel Red™. Real time PCR was run on the samples. […] The Gel Red™ was too highly concentrated that it penetrated all of E. coli even in the “live sample. […] The Gel Red™ was too weak to get into the intact cell membrane of the live E. coli.
In this reaction, the amplification was run using primers that targeted the per gene (which encodes perosamine synthetase).

[2] = test system: Listeria monocytogenes; experiment: Real time PCR of live, heat-killed or isopropyl alcohol-killed L. monocytogenes after treatment with a DNA-binding chemical; format: cell-based; details: for Blocking of amplification of DNA from dead bacteria: dead L. monocytogens; for PCR product from live versus killed L. monocytogenes: Gel Red 3x stock
Experimental: as §1, §2
(§3) A sample containing L. monocytogenes was tested. One sample included live L. monocytogenes. Another sample included heat killed L. monocytogenes and another sample contained isopropyl alcohol killed L. monocytogenes. In FIG. 3, Compound CE stands for Gel Red™. Real time PCR was run on the samples.
In this reaction, the amplification was run using primers that targeted the Hly 9125 gene (which encodes listeriolysin O protein).

[3] = test system: Salmonella Typhimurium; experiment: Real time PCR of live, heat-killed or isopropyl alcohol-killed Salmonella Typhimurium after treatment with a DNA-binding chemical; format: cell-based; details: for Blocking of amplification of DNA from dead bacteria: dead S. typhimurium; for PCR product from live versus killed Salmonella Typhimurium: Gel Red 3x stock
Experimental: as §1, §2
as §3, with “Salmonella Typhimurium” for “L. monocytogenes”, “Salmonella Typhimurium.” for “L. monocytogenes.”, “4,” for “3,”
In this reaction, the amplification was run using primers that targeted the ycdC gene (which encodes a putative transcriptional repressor protein).

[4] = cited from earlier work
[5] = cited from earlier work; remark: listed apart in the source
[6] = test system: bacterial sample; experiment: PMA sample modification combined with high voltage light exposure, PCR; format: cell-based
Description: as §2

[7] = concentrations well above the working concentrations used in gel staining

Q: Which “Blocking of amplification of DNA from dead bacteria” value (“Blocking of amplification of DNA” for short) [1] does the source give for ethidium monoazide bromide [EMA] here?
A: can block the amplification of DNA from dead bacteria

Q: And the “Penetration into E. coli and blocking of PCR amplification” value [1]?
A: penetrates only live E. coli

Q: And the “Blocking of amplification of DNA” value [2]?
A: can block the amplification of DNA from dead bacteria

Q: And the “Blocking of amplification of DNA” value [3]?
A: can block the amplification of DNA from dead bacteria

Q: And the Harmfulness ([4]; Table 1)?
A: Potentially harmful

Q: What about the Solubility ([5]; Table 1) of the same molecule?
A: Soluble in DMF or EtOH.

Q: Which results are given for `Nc1ccc2c(c1)c(-c1ccccc1)[n+](CCCCCC(=O)NCCCOCCOCCOCCCNC(=O)CCCCC[n+]1c(-c3ccccc3)c3cc(N)ccc3c3ccc(N)cc31)c1cc(N)ccc21.[I-].[I-]` [Gel Red™, 5, 5′-(6, 22-dioxo-11, 14, 17-trioxa-7, 21-diazaheptacosane-1, 27-diyl)bis(3,8-diamino-6-phenylphenanthridin-5-ium) iodide]?
A: PCR amplification product from live versus killed E. coli ([1]; dilution 1:1): no PCR products even in the sample containing the live bacteria; PCR amplification product from live versus killed E. coli ([1]; dilution 1:10): signal from live but not from killed samples; PCR amplification product from live versus killed E. coli ([1]; dilution 1:100): amplification products in all samples, including the killed bacteria samples; PCR product from live versus killed L. monocytogenes ([2]; dilution 1:1): no PCR products; PCR product from live versus killed L. monocytogenes ([2]; dilution 1:10): signal from live but not from killed samples; PCR product from live versus killed L. monocytogenes ([2]; dilution 1:100): signal from live but not from killed samples; PCR product from live versus killed Salmonella Typhimurium ([3]; dilution 1:1): no PCR products; PCR product from live versus killed Salmonella Typhimurium ([3]; dilution 1:10): no PCR products; PCR product from live versus killed Salmonella Typhimurium ([3]; dilution 1:100): signal from live but not from killed samples; Cytotoxicity (Description) ([4]; Table 1): noncytotoxic.; Cytotoxicity [4, 7]: noncytotoxic; Hazard [4, 7]: nonhazardous; Mutagenicity [4, 7]: nonmutagenic; Stability under normal light ([5]; Table 1, normal light): light (photostable).; Stability ([5]; Table 1): stable; Stability ([5]; general statement): extremely stable

Q: What does the source list for `CC[N+](C)(CC)CCC[n+]1c(-c2ccccc2)c2cc(N=[N+]=[N-])ccc2c2ccc(N)cc21` [PMA, propidium monoazide]?
A: Blocking of amplification of DNA from dead bacteria [1]: completely blocks the amplification of DNA from dead; also recorded: can block the amplification of DNA from dead bacteria; Penetration into E. coli and blocking of PCR amplification [1]: penetrates only live E. coli; Blocking of amplification of DNA from dead bacteria [2]: completely blocks the amplification of DNA from dead; also recorded: can block the amplification of DNA from dead bacteria; Blocking of amplification of DNA from dead bacteria [3]: completely blocks the amplification of DNA from dead; also recorded: can block the amplification of DNA from dead bacteria; Effect of PMA combined with light exposure compared with PMA only [6]: not much different from using only PMA; Cytotoxicity (Description) ([4]; Table 1): substantially lower
